Reference: patent US20060234909A1, “Compositions and methods for increasing drug efficiency” (priority 2003, published 2006)
One block for each compound: values may come before it.

Assays:
[1] = test system: Normal human foreskin fibroblasts (HFF); settings: read-out: HFF (EC50 Ave) ML; HFF, ML (monolayer)
HUVEC = test: Cytotoxicity assay (monolayer), HUVEC; assay type: cell-based; settings: ML (monolayer), read-out: HUVEC (EC50 Ave) ML
MCF-7 breast carcinoma = test: Cytotoxicity assay (monolayer), MCF-7; assay type: cell-based; settings: MCF7, ML (monolayer); read-out: MCF7 (EC50 Ave) ML;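 further: cells treated 72 h with 6-8 compound doses versus DMSO vehicle controls, EC50 fitted by 4-parameter dose-response curves, averaged across all tests and lots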
[2] = test system: HT-29 colorectal carcinoma; test: Cytotoxicity assay (monolayer), HT-29; assay type: cell-based; settings: HT29, ML (monolayer); read-out: HT29 (EC50 Ave) ML;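 further: monolayer cultures tested in triplicate, compound exposure for three days against DMSO vehicle controls, EC50 fitted from dose-response curves and averaged across all tests and lots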
HT-29 cells = settings: read-out: HT29 (EC50 Ave) SA; HT29, SA (soft agar)
tubulin = test: Fluorescence-based tubulin polymerization assay (MPA; enhancement for paclitaxel, inhibition for vinblastine); assay type: biochemical
Source text: Drug-linker constructs may further be screened using functional assays predictive of biological activity. […] Tubulin assembly or inhibition thereof may be monitored by fluorescence using the CytoDYNAMIX Screen™ 10 kit available from Cytoskeleton (1830 S. Acoma St., Denver, Colo.). […] Emission is monitored at 405 nm with excitation at 360 nm. […] Tubulin assembly or inhibition may also be monitored by light scattering which is approximated by the apparent absorption at 350 nm. For paclitaxel drug conjugates BSA is employed to prevent aggregation and glycerol, which is a tubulin polymerization enhancer, is omitted from the kit to increase the signal to noise ratio.
The assay kit (#BK011) was purchased from Cytoskeleton (Denver, Colo.). The assays were carried out according to the manufacturer's instructions, except that 1 mg/ml BSA (Sigma #A3059) was included in all assays. […] Parent drugs and conjugates were tested at 0.75, 1.5, 3 and 10 micromolar final concentration and results represent a comparison of conjugate and parent drug curves obtained from the linear range of the dose responses.
(±SD) represent the average of all tests carried out for all lots of a given compound.

MCF-7 cells = settings: read-out: MCF7 (EC50 Ave) SA; MCF7, SA (soft agar)

EC50 (HT-29 cells): < 20 nM
EC50 (MCF-7 cells): < 20 nM
Compound: CC[C@]1(O)C[C@@H]2CN(CCc3c([nH]c4ccccc34)[C@@](C(=O)OC)(c3cc4c(cc3OC)N(C)[C@H]3[C@@](O)(C(=O)NCCCCCCCCCCCCN)[C@H](O)[C@]5(CC)C=CCN6CC[C@]43[C@@H]65)C2)C1 [VBL-3Am-ALK(12)-NH2]
EC50 [1]: < 20 nM
EC50 (HUVEC): < 20 nM
EC50 (MCF-7 breast carcinoma): < 20 nM
EC50 [2]: < 20 nM
Ave. MPA Act. (tubulin): B (B=50-80)

EC50 (HT-29 cells): < 20 nM
EC50 (MCF-7 cells): < 20 nM
Compound: CC[C@]1(O)C[C@@H]2CN(CCc3c([nH]c4ccccc34)[C@@](C(=O)OC)(c3cc4c(cc3OC)N(C)[C@H]3[C@@](O)(C(=O)NCCCCCCCCCCCCNC(=O)OC(C)(C)C)[C@H](O)[C@]5(CC)C=CCN6CC[C@]43[C@@H]65)C2)C1 [VBL-3Am-ALK(12)-NH(B)]
EC50 [1]: < 20 nM
EC50 (HUVEC): < 20 nM
EC50 (MCF-7 breast carcinoma): 20 to 100 nM
EC50 [2]: 100 to 1000 nM
Ave. MPA Act. (tubulin): A (A<50)

EC50 (HT-29 cells): < 20 nM
EC50 (MCF-7 cells): < 20 nM
Compound: CC[C@]1(O)C[C@@H]2CN(CCc3c([nH]c4ccccc34)[C@@](C(=O)OC)(c3cc4c(cc3OC)N(C)[C@H]3[C@@](O)(C(=O)NCCCCCCCCN)[C@H](O)[C@]5(CC)C=CCN6CC[C@]43[C@@H]65)C2)C1 [VBL-3Am-ALK(8)-NH2]
EC50 [1]: < 20 nM
EC50 (HUVEC): < 20 nM
EC50 (MCF-7 breast carcinoma): < 20 nM
EC50 [2]: < 20 nM
Ave. MPA Act. (tubulin): B (B=50-80)

EC50 (HT-29 cells): < 20 nM
EC50 (MCF-7 cells): < 20 nM
Compound: CC[C@]1(O)C[C@@H]2CN(CCc3c([nH]c4ccccc34)[C@@](C(=O)OC)(c3cc4c(cc3OC)N(C)[C@H]3[C@@](O)(C(=O)NCCCCCCNC(=O)OC(C)(C)C)[C@H](O)[C@]5(CC)C=CCN6CC[C@]43[C@@H]65)C2)C1 [VBL-3Am-ALK(6)-NH(B)]
EC50 [1]: < 20 nM
EC50 (HUVEC): < 20 nM
EC50 (MCF-7 breast carcinoma): < 20 nM
EC50 [2]: < 20 nM
Ave. MPA Act. (tubulin): A (A<50)

Second part, the compound before the results:

Compound: C=CCOC(=O)O[C@@H](C(=O)O[C@H]1C[C@@]2(O)[C@@H](OC(=O)c3ccccc3)[C@@H]3[C@]4(OC(C)=O)CO[C@@H]4C[C@H](O)[C@@]3(C)C(=O)[C@H](OC(C)=O)C(=C1C)C2(C)C)[C@@H](NC(=O)c1ccccc1)c1ccccc1 [PXL-2′Alloc]
EC50 [1]: < 20 nM
EC50 (HUVEC): < 20 nM
EC50 (MCF-7 breast carcinoma): < 20 nM
EC50 [2]: < 20 nM
EC50 (HT-29 cells): < 20 nM
Ave. MPA Act. (tubulin): A (A<50)
EC50 (MCF-7 cells): < 20 nM

Compound: CC(=O)O[C@@]12CO[C@@H]1C[C@H](O)[C@@]1(C)C(=O)[C@H](OC(=O)CCCCCCNC(=O)OCc3ccccc3)C3=C(C)[C@@H](OC(=O)[C@H](O)[C@@H](NC(=O)c4ccccc4)c4ccccc4)C[C@@](O)([C@@H](OC(=O)c4ccccc4)[C@H]21)C3(C)C [PXL-10Es-Alk(6)-NH(Z)]
EC50 [1]: < 20 nM
EC50 (HUVEC): < 20 nM
EC50 (MCF-7 breast carcinoma): < 20 nM
EC50 [2]: < 20 nM
EC50 (HT-29 cells): < 20 nM
Ave. MPA Act. (tubulin): A (A<50)
EC50 (MCF-7 cells): < 20 nM

Compound: CC(=O)O[C@H]1C(=O)[C@]2(C)[C@@H](OC(=O)CCCCCN)C[C@H]3OC[C@@]3(OC(C)=O)[C@H]2[C@H](OC(=O)c2ccccc2)[C@]2(O)C[C@H](OC(=O)[C@H](O)[C@@H](NC(=O)c3ccccc3)c3ccccc3)C(C)=C1C2(C)C [PXL-7Es-ALK(5)-NH2]
EC50 [1]: < 20 nM
EC50 (HUVEC): < 20 nM
EC50 (MCF-7 breast carcinoma): 100 to 1000 nM
EC50 [2]: 100 to 1000 nM
EC50 (HT-29 cells): < 20 nM
Ave. MPA Act. (tubulin): A (A<50)
EC50 (MCF-7 cells): < 20 nM

Compound: CC(=O)O[C@H]1C(=O)[C@]2(C)[C@@H](OC(=O)NCCCCCCN)C[C@H]3OC[C@@]3(OC(C)=O)[C@H]2[C@H](OC(=O)c2ccccc2)[C@]2(O)C[C@H](OC(=O)[C@H](O)[C@@H](NC(=O)c3ccccc3)c3ccccc3)C(C)=C1C2(C)C [PXL-7Ca-ALK(6)-NH2]
EC50 [1]: < 20 nM
EC50 (HUVEC): < 20 nM
EC50 (MCF-7 breast carcinoma): 100 to 1000 nM
EC50 [2]: < 20 nM
EC50 (HT-29 cells): < 20 nM
Ave. MPA Act. (tubulin): A (A<50)
EC50 (MCF-7 cells): < 20 nM

Compound: CC[C@]1(O)CC2CN(CCc3c([nH]c4ccccc34)[C@@](C(=O)OC)(c3cc4c(cc3OC)N(C)[C@H]3C(O)(C(=O)NCCOCCOCCOCCN)[C@H](O)[C@]5(CC)C=CCN6CCC43[C@@H]65)C2)C1 (stereo partly shown) [VBL-3Am-PEG(11)-NH2]
EC50 [1]: < 20 nM
EC50 (HUVEC): < 20 nM
EC50 (MCF-7 breast carcinoma): 20 to 100 nM
EC50 [2]: 20 to 100 nM
EC50 (HT-29 cells): < 20 nM
Ave. MPA Act. (tubulin): B (B=50-80)
EC50 (MCF-7 cells): < 20 nM

Compound: CC(=O)O[C@@]12CO[C@@H]1C[C@H](O)[C@@]1(C)C(=O)[C@H](OC(=O)CCCCCN)C3=C(C)[C@@H](OC(=O)[C@H](O)[C@@H](NC(=O)c4ccccc4)c4ccccc4)C[C@@](O)([C@@H](OC(=O)c4ccccc4)[C@H]21)C3(C)C [PXL-10Es-ALK(5)-NH2]
EC50 [1]: < 20 nM
EC50 (HUVEC): < 20 nM
EC50 (MCF-7 breast carcinoma): < 20 nM
EC50 [2]: < 20 nM
EC50 (HT-29 cells): < 20 nM
Ave. MPA Act. (tubulin): B (B=50-80)
EC50 (MCF-7 cells): < 20 nM

Compound: CC[C@]1(O)C[C@@H]2CN(CCc3c([nH]c4ccccc34)[C@@](C(=O)OC)(c3cc4c(cc3OC)N(C)[C@H]3[C@@](O)(C(=O)NCCCCCCN)[C@H](O)[C@]5(CC)C=CCN6CC[C@]43[C@@H]65)C2)C1 [VBL-3Am-ALK(6)-NH2]
EC50 [1]: < 20 nM
EC50 (HUVEC): < 20 nM
EC50 (MCF-7 breast carcinoma): < 20 nM
EC50 [2]: < 20 nM
EC50 (HT-29 cells): < 20 nM
Ave. MPA Act. (tubulin): C (C>80)
EC50 (MCF-7 cells): < 20 nM

Compound: CC[C@]1(O)C[C@@H]2CN(CCc3c([nH]c4ccccc34)[C@@](C(=O)OC)(c3cc4c(cc3OC)N(C)[C@H]3[C@@](O)(C(=O)NN)[C@H](O)[C@]5(CC)C=CCN6CC[C@]43[C@@H]65)C2)C1 [Desacetylvinblastine monohydrazine]
EC50 [1]: < 20 nM
EC50 (HUVEC): < 20 nM
EC50 (MCF-7 breast carcinoma): < 20 nM
EC50 [2]: < 20 nM
EC50 (HT-29 cells): < 20 nM
Ave. MPA Act. (tubulin): C (C>80)
EC50 (MCF-7 cells): < 20 nM

Compound: CC[C@]1(O)C[C@@H]2CN(CCc3c([nH]c4ccccc34)[C@@](C(=O)OC)(c3cc4c(cc3OC)N(C)[C@H]3[C@@](O)(C(=O)OC)[C@H](O)[C@]5(CC)C=CCN6CC[C@]43[C@@H]65)C2)C1 [Desacetyl vinblastine]
EC50 [1]: < 20 nM
EC50 (HUVEC): < 20 nM
EC50 (MCF-7 breast carcinoma): < 20 nM
EC50 [2]: < 20 nM
EC50 (HT-29 cells): < 20 nM
Ave. MPA Act. (tubulin): C (C>80)
EC50 (MCF-7 cells): < 20 nM
